Source: PubChem BioAssay AID1259411 (Chemical Carcinogenesis Research Information System (CCRIS), 2018)
The source made the active and inactive calls. How the calls were made is not given here.

Test system: rodent carcinogenicity bioassays, tumor incidence
Experiment: CCRIS carcinogenicity studies
Procedure, shortened: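 Archive of carcinogenicity, mutagenicity, tumor promotion and tumor inhibition results drawn from journals, NCI reports and other sources, expert-reviewed; covers 1985-2011 and is no longer updated.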

[N-]=[N+]=CC(=O)OC[C@H](N)C(=O)O
carcinogen call (Species: RAT, Strain/Sex: WISTAR/MALE,FEMALE, Route: INTRAPERITONEAL, Dose: 5 MG/KG 1-2 TIMES PER WK FOR 6 MO, Tumor Site: Type of Lesion: KIDNEY: PAPILLARY EPITHELIAL TUMOR, CLEAR CELL TUMOR, TUBULAR ADENOMA, PANCREAS: ADENOCARCINOMA): active; positive

CCN(CC)C(=S)SSC(=S)N(CC)CC
carcinogen call (Species: MOUSE, Strain/Sex: B6C3F1/FEMALE, Route: ORAL, Dose: 0, 100, 500 PPM IN DIET, Dose: 0, 100, 500 PPM IN DIET): inactive; negative | carcinogen call (Species: MOUSE, Strain/Sex: B6C3F1/MALE, Route: ORAL, Dose: 0, 500, 2000 PPM IN DIET, Dose: 0, 500, 2000 PPM IN DIET): inactive; negative | carcinogen call (Species: RAT, Strain/Sex: F344/FEMALE, Route: ORAL, Dose: 0, 300, 600 PPM IN DIET, Dose: 0, 300, 600 PPM IN DIET): inactive; negative | carcinogen call (Species: RAT, Strain/Sex: F344/MALE, Route: ORAL, Dose: 0, 300, 600 PPM IN DIET, Dose: 0, 300, 600 PPM IN DIET): inactive; negative

CC1(C)C(C=C(Cl)Cl)C1C(=O)OC(C#N)c1ccc(F)c(Oc2ccccc2)c1 (stereo not drawn)
carcinogen call (Species: Mouse, Strain/Sex: CD-1/Female (56/dose), Route: Oral, Dose: 0, 200, 750, 1,600 ppm (0; 38.4; 140/6; 309.7 mg/kg/day) of 94-95% pure cyfluthrin in feed for 18 mo, Dose: 0, 200, 750, 1,600 ppm (0; 38.4; 140/6; 309.7 mg/kg/day) of 94-95% pure cyfluthrin in feed for 18 mo): inactive; negative | carcinogen call (Species: Mouse, Strain/Sex: CD-1/Male (56/dose), Route: Oral, Dose: 0, 200, 750, 1,400 ppm (0; 31.9; 114.8; 232.7 mg/kg/day) of 94-95% pure cyfluthrin in feed for 18 mo, Dose: 0, 200, 750, 1,400 ppm (0; 31.9; 114.8; 232.7 mg/kg/day) of 94-95% pure cyfluthrin in feed for 18 mo): inactive; negative | carcinogen call (Species: Rat, Strain/Sex: Fisher 344/Female (55/dose), Route: Oral, Dose: 0, 50, 225, 450 ppm (3.3; 14.4; 28.3 mg/kg/day) of 93.9-95.1% pure cyfluthrin in feed for 2 yr, Dose: 0, 50, 225, 450 ppm (3.3; 14.4; 28.3 mg/kg/day) of 93.9-95.1% pure cyfluthrin in feed for 2 yr): inactive; negative | carcinogen call (Species: Rat, Strain/Sex: Fisher 344/Male (55/dose), Route: Oral, Dose: 0, 50, 225, 450 ppm (2.6; 11.6; 22.8 mg/kg/day) of 93.9-95.1% pure cyfluthrin in feed for 2 yr, Dose: 0, 50, 225, 450 ppm (2.6; 11.6; 22.8 mg/kg/day) of 93.9-95.1% pure cyfluthrin in feed for 2 yr): inactive; negative

ClCc1ccccn1
carcinogen call (Species: MOUSE, Strain/Sex: B6C3F1/FEMALE, Route: GAVAGE, Dose: 0, 125, 250 MG/KG IN AQ SOLN, Dose: 0, 125, 250 MG/KG IN AQ SOLN): inactive; negative | carcinogen call (Species: MOUSE, Strain/Sex: B6C3F1/MALE, Route: GAVAGE, Dose: 0, 125, 250 MG/KG IN AQ SOLN, Dose: 0, 125, 250 MG/KG IN AQ SOLN): inactive; negative | carcinogen call (Species: RAT, Strain/Sex: F344/FEMALE, Route: GAVAGE, Dose: 0, 75, 150 MG/KG IN AQ SOLN, Dose: 0, 75, 150 MG/KG IN AQ SOLN): inactive; negative | carcinogen call (Species: RAT, Strain/Sex: F344/MALE, Route: GAVAGE, Dose: 0, 75, 150 MG/KG IN AQ SOLN, Dose: 0, 75, 150 MG/KG IN AQ SOLN): inactive; negative

C=CC(=O)OCC(CC)CCCC (stereo not drawn)
carcinogen call (Species: MOUSE, Strain/Sex: NMRI/MALE, Route: DERMAL, Dose: 0, 21.5, 43, 85% (W/W) IN ACETONE 3/WK FOR 2 YR (STUDY DURATION: 2 YR), Dose: 0, 21.5, 43, 85% (W/W) IN ACETONE 3/WK FOR 2 YR (STUDY DURATION: 2 YR)): inactive; negative

CC/C(=C(\c1ccccc1)c1ccc(OCCN(C)C)cc1)c1ccccc1
carcinogen call (Species: MONKEY, Strain/Sex: CYNOMOLGUS/FEMALE, Route: ORAL, Dose: 0, 20 MG/WOMAN/D HUMAN DOSE EQUIVALENT IN DIET FOR 36 MONTHS BEGINNING 3 MONTHS POST BILATERAL OVARIECTOMY (STUDY DURATI): inactive; negative | carcinogen call (Species: MOUSE, Strain/Sex: CD-1/FEMALE, Route: SUBCUTANEOUS, Dose: 0, 1, 2, 5, 10, 25, 50 UG/D ON DAYS 1-5 OF LIFE (STUDY DURATION: 17 MO), Dose: 0, 1, 2, 5, 10, 25, 50 UG/D ON DAYS 1-5 OF LIFE (STUDY DURATION: 17 MO), Tumor Site: Type of Lesion: UTERUS: ADENOCARCINOMA): active; positive | carcinogen call (Species: Mouse, Strain/Sex: CD-1/Female (30/group), Route: Subcutaneous, Dose: 0, 10 ug as tamoxifen in peanut oil, dosed on days 1-5 of life and retained for 1.5 (4 animals), 3 (4 animals), 6 (4 ani, Dose: 0, 10 ug as tamoxifen in peanut oil, dosed on days 1-5 of life and retained for 1.5 (4 animals), 3 (4 animals), 6 (4 ani, Tumor Site: Type of Lesion: Uterus and ovaries examined): inactive; negative | carcinogen call (Species: Mouse, Strain/Sex: CD-1/Female (35/group), Route: Subcutaneous, Dose: 0, 5, 10, 25, 50 ug as tamoxifen in peanut oil, dosed on days 1-5 of life and retained for 3 (4 animals), 6 (4 animals),, Dose: 0, 5, 10, 25, 50 ug as tamoxifen in peanut oil, dosed on days 1-5 of life and retained for 3 (4 animals), 6 (4 animals),, Tumor Site: Type of Lesion: Uterus and ovaries examined): inactive; negative (nonneoplastic changes were observed) | carcinogen call (Species: RAT, Strain/Sex: ALDERLEY PARK/FEMALE, Route: GAVAGE, Dose: 0, 5, 20, 35 MG/KG/D IN 0.5% HYDROXYPROPYL METHYLCELLULOSE FOR 2 YR (STUDY DURATION: 2 YR), Dose: 0, 5, 20, 35 MG/KG/D IN 0.5% HYDROXYPROPYL METHYLCELLULOSE FOR 2 YR (STUDY DURATION: 2 YR), Tumor Site: Type of Lesion: LIVER: HEPATOCELLULAR ADENOMA, HEPATOCELLULAR CARCINOMA, HEPATO/CHOLANGIOCELLULAR CARCINOMA): active; positive | carcinogen call (Species: RAT, Strain/Sex: ALDERLEY PARK/MALE, Route: GAVAGE, Dose: 0, 5, 20, 35 MG/KG/D IN 0.5% HYDROXYPROPYL METHYLCELLULOSE FOR 2 YR (STUDY DURATION: 2 YR), Dose: 0, 5, 20, 35 MG/KG/D IN 0.5% HYDROXYPROPYL METHYLCELLULOSE FOR 2 YR (STUDY DURATION: 2 YR), Tumor Site: Type of Lesion: LIVER: HEPATOCELLULAR ADENOMA, HEPATOCELLULAR CARCINOMA, HEPATO/CHOLANGIOCELLULAR CARCINOMA): active; positive | carcinogen call (Species: RAT, Strain/Sex: SPRAGUE-DAWLEY/FEMALE, Route: GAVAGE, Dose: 0, 2.8, 11.3, 45.2 MG/KG/D IN CARBOXYMETHYL-CELLULOSE FOR UP TO 1 YR WITH 2 RECOVERY PERIODS, 4 WK OF RECOVERY AFTER 6 M, Dose: 0, 2.8, 11.3, 45.2 MG/KG/D IN CARBOXYMETHYL-CELLULOSE FOR UP TO 1 YR WITH 2 RECOVERY PERIODS, 4 WK OF RECOVERY AFTER 6 M, Tumor Site: Type of Lesion: LIVER: ADENOMA, CARCINOMA): active; positive | carcinogen call (Species: RAT, Strain/Sex: SPRAGUE-DAWLEY/FEMALE, Route: GAVAGE, Dose: 0, 11.3, 22.6 MG/KG IN 0.5% CARBOXYMETHYLCELLULOSE 1/D 7 D/WK FOR UP TO 12 MO (STUDY DURATION: 15 MO), Dose: 0, 11.3, 22.6 MG/KG IN 0.5% CARBOXYMETHYLCELLULOSE 1/D 7 D/WK FOR UP TO 12 MO (STUDY DURATION: 15 MO), Tumor Site: Type of Lesion: LIVER: HEPATOCELLULAR ADENOMA, HEPATOCELLULAR CARCINOMA): active; positive | carcinogen call (Species: RAT, Strain/Sex: WISTAR/FEMALE, Route: ORAL, Dose: 0, 1 MG/KG BW/D IN PEANUT OIL/LECITHIN/CONDENSED MILK MIXTURE ON DAYS 2-5 OF AGE (STUDY DURATION: 35 MONTHS), Tumor Site: Type of Lesion: UTERUS: ADENOCARCINOMA, VAGINA/CERVIX: SQUAMOUS CELL CARCINOMA): active; positive | carcinogen call (Species: RAT, Strain/Sex: WISTAR/FEMALE, Route: ORAL, Dose: 0, 420 PPM IN DIET FOR 3 MO (STUDY DURATION: LIFETIME), Tumor Site: Type of Lesion: LIVER: TUMOR): active; positive

CSC(=O)c1cccc2nnsc12
carcinogen call (Species: Mouse, Strain/Sex: Tif:MAGf (SPF) (NIH x MAG hybrid)/Female, Route: Oral (diet), Dose: 0, 10, 100, 2000, 6000 ppm (0; 1.14; 10.8; 234; 696 mg/kg/day) for 18 mo, Dose: 0, 10, 100, 2000, 6000 ppm (0; 1.14; 10.8; 234; 696 mg/kg/day) for 18 mo): inactive; negative | carcinogen call (Species: Mouse, Strain/Sex: Tif:MAGf (SPF) (NIH x MAG hybrid)/Male, Route: Oral, Dose: 0, 10, 100, 2000, 6000 ppm (0; 1.14; 11.1; 237; 698 mg/kg/day) in feed for 18 mo, Dose: 0, 10, 100, 2000, 6000 ppm (0; 1.14; 11.1; 237; 698 mg/kg/day) in feed for 18 mo): inactive; negative | carcinogen call (Species: Rat, Strain/Sex: Tif:Ralf (SPF) (Rll/1 x Rll/2 hybrid)/Female, Route: Oral, Dose: 0, 20, 200, 2500, 7500 ppm (0; 0.90; 9.08; 111; 388 mg/kg/day) in feed for 2 yr, Dose: 0, 20, 200, 2500, 7500 ppm (0; 0.90; 9.08; 111; 388 mg/kg/day) in feed for 2 yr): inactive; negative | carcinogen call (Species: Rat, Strain/Sex: Tif:Ralf (SPF) (Rll/1 x Rll/2 hybrid)/Male, Route: Oral, Dose: 0, 20, 200, 2500, 7500 ppm (0; 0.77; 7.77; 96.9; 312 mg/kg/day) in feed for 2 years, Dose: 0, 20, 200, 2500, 7500 ppm (0; 0.77; 7.77; 96.9; 312 mg/kg/day) in feed for 2 years, Tumor Site: Type of Lesion: Small intestine: Mucinous carcinoma (1/60; 1/59; 2/59 at three highest doses)): active; positive; dpr reviewer notes that only 1 case of mucinous carcinoma has been see
